{
  "source": "patent US20060194740A1",
  "about": "“NOD1 as an anti-tumor agent” (priority 2005, published 2006)",
  "key": {"[1]": {"tested_on": "MCF-7 C20 cells", "assay": "Propidium iodide exclusion cell death assay, Nod1-deficient MCF-7 C20 cells", "assay_type": "cell-based, human", "settings": "C20 cells, charcoal-treated serum, γTriDAP/CHX (FIG. 12A, middle panel)", "experimental": "Cell viability assays. […] Subsequently, cells were harvested, washed twice in FACS buffer (PBS containing 1% FCS and 0.1% NaN3) and resuspended in propidium iodide (PI)—containing FACS buffer (4 ug/ml). The extent of cell death was analyzed with a FACSCalibur flow cytometer (Becton Dickinson, Mountain View, Calif.). DAPI staining: MCF-7 cells were plated in chamber slides, and stimulated for 2 days. Cells were washed with PBS and apoptotic nuclei were stained with 1 μg/ml DAPI (Sigma Chemical Co., St. Louis, Mo.). Cells were fixed in 4% paraformaldehyde and examined by fluorescence microscopy.\n(§1) To further investigate the role of Nod1 in apoptosis, a variety of cell types were incubated with the Nod1 ligand, […] (γTriDAP), which specifically activates Nod1. The cell types tested included the parental MCF-7 cell line, the Nod1-deficient MCF-7C20 clone, and a cell line engineered to contain an additional human Nod1 allele (MCF-7Nod1) so that Nod1 was over-expressed. To determine whether the resistance of C20 cells to γTriDAP-induced apoptosis resulted from the absence of Nod1, human Nod1 was stably expressed in MCF-7 C20 cells to produce Nod1-sufficient C20 cells (C20/Nod1). As another control, the parental MCF-7 cell line was transfected with an empty retroviral vector to generate MCF-7 Blasto cells. Cells were treated with γTriDAP in the presence or absence of cycloheximide (CHX) and cell death was then determined by propidium iodide staining and flow cytometry."}, "[2]": {"tested_on": "MCF-7 C20/Nod1 cells", "assay": "Propidium iodide exclusion apoptosis assay, MCF-7 C20/Nod1 cells", "assay_type": "cell-based, human", "settings": "C20/Nod1 and Blasto cells, charcoal-treated serum, increasing estrogen (FIG. 12A)", "experimental": "Cell viability assays. Propidium iodide exclusion assay: Cells were stimulated as indicated for 2 days. Subsequently, cells were harvested, washed twice in FACS buffer (PBS containing 1% FCS and 0.1% NaN3) and resuspended in propidium iodide (PI)—containing FACS buffer (4 ug/ml). The extent of cell death was analyzed with a FACSCalibur flow cytometer (Becton Dickinson, Mountain View, Calif.). DAPI staining: MCF-7 cells were plated in chamber slides, and stimulated for 2 days. Cells were washed with PBS and apoptotic nuclei were stained with 1 μg/ml DAPI (Sigma Chemical Co., St. Louis, Mo.). Cells were fixed in 4% paraformaldehyde and examined by fluorescence microscopy.\nas §1\nTo determine whether the presence of estrogens modulates Nod1-induced apoptotic pathway, cells were cultured in medium containing charcoal-treated serum."}, "[3]": {"tested_on": "MCF-7 C20/Nod1", "assay": "Human xenograft in SCID mice, MCF-7 C20/Nod1 cells", "assay_type": "in vivo", "settings": "mice that received MCF-7 C20/Nod1, estrogen pellets present (FIG. 11B)", "experimental": "(§2) Human xenografts in nude mice. MCF-7 Blasto, MCF-7 C20 and MCF-7 C20/Nod1 cells were trypsinized, washed once with PBS and resuspended to a concentration of 1.5×10^7/ml. Two hundred microliters of each suspension were inoculated subcutaneously into the flank of athymic SCID/SCID or SCID/Nod (non-obese diabetic) female mice. Tumor size was assessed once a week. Tumor volume was calculated.\n(§3) Nod1 controls tumor formation. Nod1-dependent apoptotic pathways might be important in a number of biological processes, including tumor cell growth regulation and a failure of malignant cells to undergo cell death, leading to tumorigenesis. A xenograft model of tumor growth in SCID mice was used to examine the role that Nod1 plays in tumor growth and tumor rejection. Populations of MCF-7Blasto, MCF-7C20 and MCF-7C20Nod1 cells (each totaling about 3×10^6 cells), were separately injected subcutaneously into the flanks of female mice to induce tumor growth in SCID/SCID or SCID/Nod1 mice. Animals were scored for tumor formation once a week post-injection for up to 8 weeks.\n(§4) In most studies, tumor formation by MCF-7 cells requires supplementation of estrogens for tumorigenesis in nude mice, even when cells are inoculated at high concentration. To further examine the role of estrogen in tumorigenesis, all three cell lines were injected into mice along with estrogen pellets (FIG. 11B). […]"}, "[4]": {"tested_on": "MCF-7 C20 cells", "assay": "Human xenograft in SCID mice, MCF-7 C20 cells", "assay_type": "in vivo", "settings": "mice injected with MCF-7 C20 cells, estrogen pellets present (FIG. 11B)", "experimental": "as §2, §3, §4"}, "[5]": {"tested_on": "MCF-7 Blasto cells", "assay": "Human xenograft in SCID mice, MCF-7 Blasto cells", "assay_type": "in vivo", "settings": "mice injected with MCF-7 Blasto cells, estrogen pellets present (FIG. 11B)", "experimental": "as §2, §3, §4"}, "[6]": {"tested_on": "MCF-7 C20 cells", "assay": "3H-thymidine proliferation assay, MCF-7 C20 cells", "assay_type": "cell-based, human", "settings": "cells grown in the absence of estrogen, estrogen added; 3H-thymidine (FIG. 11D)", "experimental": "Retroviral transfections. The various genes used in this study were cloned into pMSCV-Blasto, pBabe-Puro or pBabe-Neo retroviral vectors. MCF-7 cells were stably transfected using available procedures. Briefly, amphotropic 293 cells were transfected with retroviral vectors encoding selected Nod1, Nod2 and other proteins. Twenty-four hours post-transfection, cells were incubated at 32° C. overnight to produce viral particles. Target cells were infected the next day with virus-containing 293 cell supernatants containing recombinant retroviral particles. Cells were selected with 10 μg/ml blasticidin S (Calbiochem EMD Biosciences Inc., San Diego, Calif.), 500 μg/ml […] (Invitrogen, Carlsbad, Calif.) or 5 μg/ml puromycin (Calbiochem). The expression of all constructs was confirmed by Western blot analysis. To determine the effects of 17β-estradiol (Calbiochem), cells were cultured in phenol red-free DMEM supplemented with […]. Cells were seeded in 96 well plates with various concentration of 17β-estradiol (E2) for 24 h and pulsed with ^3H-thymidine (1 μCi/well, MP Biomedicals, Irvine, Calif.). Cells were harvested on glass fiber filters and radioactivity measured by liquid scintillation. […]"}},
  "data": [
    {"substance": "17β-estradiol [estrogen]", "values": [
      {"measurement": "effect of estrogen upon apoptosis", "setting": "[1]", "result": "little or no effect"},
      {"measurement": "effect of estrogen upon γTriDAP-induced apoptosis", "setting": "[2]", "result": "apoptosis increased in a dose-dependent manner"},
      {"measurement": "tumor growth", "setting": "[3]", "result": "did not grow tumors"},
      {"measurement": "tumor growth", "setting": "[4]", "result": "grew even larger"},
      {"measurement": "tumor growth", "setting": "[5]", "result": "tumors grew"},
      {"measurement": "proliferative response", "setting": "[6]", "result": "strong proliferative response"}
    ]}
  ]
}
